One data set deals with Jurkat cell line. Put plainly: Cytotoxicity, WST-1 cell viability. It counts as cell-based, human. The settings on record: 0.2 µM ~ 50 µM, 24 and 48 hours. The procedure: For Example 1 (LCA-Ile), Example 44 (LCA-Val), Example 2 (UDCA-Ile), and Example 3 (UDCA-Val), cytotoxicity was evaluated in the Jurkat cell line, a human T lymphocyte-derived cell line. Jurkat cell lines were seeded at a density of 5 × 10^4 on a 96 well plate for overnight incubation, and each compound was treated at a concentration of 0.2 µM ~ 50 µM for 24 or 48 hours. WST-1, a reagent for measuring cell viability, was loaded at 10 µl/well, and absorbance was measured at 440 nm using a microplate reader 2 hours later. The mean value of negative control (NC) group treated with only DMSO was calculated as 1 and the cytotoxicity for the remaining experimental group was evaluated.
(In general: Tetrazolium dyes change colour on reduction, which living cells bring about.)

For data set [1], the system named is HBV. In words: Inhibition of intracellular HBV virus invasion, HBeAg ELISA analysis. Particulars: 20 µM, HepG2-NTCP cell line, HBV 3000 Geq/cell, O.D. at 450 nm. The data set is classed as cell-based. The procedure:
(§1) In order to evaluate the ability to inhibit intracellular HBV virus entry (invasion), Enzyme-linked immunosorbent assay (ELISA) analysis to measure HBeAg, which is associated with high infectivity as an antigen in the HBV virus core portion, and Southern blot analysis to measure DNA of HBV were performed.
(§2) Specifically, the HepG2-NTCP cell line was cultured on a 6-well plate, incubation was performed overnight, HBV inhibitors were treated at a concentration of 20 µM, and the positive control Myrcludex-B (MyrB) was treated at a concentration of 200 nM, followed by culture for 24 hours. After HBV infection into the cells to make HBV 3000 genome equivalent per ml/cell (Geq/cell), the cell culture medium was replaced (medium changing, MC) a day after the viral infection to remove the virus unattached to cell membranes. In order to measure an amount of virus that entered the cell, medium changing (MC) was performed once more 4 days after viral infection. 2 days after replacement, HBeAg ELISA analysis was performed using a supernatant, and Southern blot analysis was performed with cell pellets.
HBeAg ELISA analysis was performed using an HBeAg ELISA kit (sanbio, Wantai HBeAg ELISA, cat#WB-2496) for the supernatant obtained by the method in Experimental Example 4-1.
First, a negative control group (Mock), positive control group (MyrB), and samples according to the present disclosure were loaded, by 50 µl each to be triplicate, onto a 96-well plate coated with capture Ab. In this case, Example 1 (LCA-ILE), Example 44 (LCA-Val), Example 52 (LCA-Tyr), Example 51 (LCA-Ser), Example 55 (LCA-Glu), Example 2 (UDCA-Ile), Example 3 (UDCA-Val), Example 25 (LCA-Val-Trp), Example 10 (DCA-Ile), Comparative Example 1 (LCA), and Comparative Example 2 (UDCA) were used as the sample.
The HRP-conjugated detection antibody was loaded into each well by 50 µl, followed by a reaction at 37°C for 30 minutes. Washing buffer (1X PBS, 0.5% Tween20) was added by 200 µl, and washing was performed 5 times. 50 µl of chromogen solution A and 50 µl of chromogen solution B were added to each well, and a reaction was carried out in the darkness at 37°C for 15 minutes. The stop solution was added to each well by 50 µl each to stop the reaction, and the amount of HBeAg was measured by measuring the absorbance (optical density, O.D.) level in the 450 nm wavelength band.
A general note: ELISA stands for enzyme-linked immunosorbent assay.

In data set [2] the test system is HBV. In words: Inhibition of intracellular HBV virus invasion, Southern blot analysis. The data set is classed as cell-based. The procedure: as §1, §2
For the cell pellet obtained by the method of Experimental Example 4-1, Southern blot analysis for measurement of […] DNA was performed using Example 1 (LCA-Ile), Example 44 (LCA-Val), Example 52 (LCA-Tyr), Example 51 (LCA-Ser), Example 55 (LCA-Glu), Example 2 (UDCA-Ile), Example 3 (UDCA-Val), Example 25 (LCA-Val-Trp), Example 10 (DCA-Ile), Comparative Example 1 (LCA), and Comparative Example 2 (UDCA).
First, the cell pellets were pipetted with 100 µl of HEPES lysis buffer (10 mM HEPES, 100 mM NaCl, 1 mM EDTA, 1% NP-40), placed on ice for 20 minutes, and then centrifuged with a centrifuge under the conditions at 4°C and 13000 rpm. After transferring the supernatant only to the new microtube, 4.5 µl of nuclease buffer I (10 mM CaCl2, 12 mM MgCl2, DNase 10 units) was added to carry out a reaction at 37°C for 2 hours, and 40 µl of 26% PEG solution was added, followed by a reaction on ice for 1 hour. After centrifuging with the centrifuge at 4°C and 13000 rpm for 30 minutes, and the supernatant was removed cleanly. After releasing the pellets with 100 µl of nuclease buffer II (10 mM Tris, 8 mM CaCl2, 6mM MgCl2), 287.5 µl of 0.5% SDS buffer (25 mM Tris, 10 mM EDTA, 0.5% SDS, 100 mM NaCl) was added, and 12.5 µl of 20 mg/ml proteinase K was added, followed by a reaction at 37°C for 2 hours. 400 µl of phenol-chloroform-isoamyl alcohol was added, centrifugation was performed at room temperature at 13000 rpm after voltexing, the supernatant was transferred to a new tube, 40 µl of 3 M NaOAc was added, and 800 µl of 100% ethanol was added for inverting, followed by a reaction overnight at -20°C. After performing centrifugation at 4°C and 13000 rpm for 30 minutes, 800 µl of 70% ethanol was added and mixed to the pellet obtained by removing the supernatant, centrifugation was performed at 4°C and 13000 rpm for 10 minutes, and then the supernatant was discarded. The ethanol was dried for 5 minutes to leave only the HBV DNA pellets, and then the pellets were dissolved again in 15 µl of TE buffer (10 mM Tris, 1 mM EDTA). HBV DNA samples were loaded in 1% agarose gel, and electrophoresis was performed. It was then immersed in denature buffer (0.25 N NaOH, 1 M NaCl) for 30 minutes to denature dsDNA of HBV into ssDNA. The DNA in the gel was transferred to a Nylon membrane using a transfer buffer (0.4 M NaOH), the membrane was soaked with a 2X SSC buffer (sigma, cat# 85639) for neutralization, followed by drying in air. The membrane was immersed in a church buffer (10% BSA, 0.5 M EDTA, 1 M NaPi, 20% SDS), and the radioisotopes were hybridized using a Mega prime kit (GE healthcare, RPN1607). After washing three times with washing buffer (2X SSC, 0.1% SDS), measurement was performed using radioisotope measurement equipment, and a relative replication rate (%) to the negative control group (Mock) was calculated and shown.

A value given as a limit tells only on which side of the number the result lay.

In the case of `CC[C@@H](C)[C@H](NC(=O)CC[C@@H](C)[C@H]1CC[C@H]2[C@@H]3CC[C@@H]4C[C@H](O)CC[C@]4(C)[C@H]3CC[C@]12C)C(=O)O` [Example 1, (2S,3R)-2-((R)-4-((3R,5R,8R,9S,10S,13R,14S,17R)-3-hydroxy-10,13-dimethyl-hexadecahydro-1H-cyclopenta[a]phenanthren-17-yl)pentanamido)-3-methylpentanoic acid], the cytotoxicity result with Jurkat cell line was “barely observed”. Also, in the data set on HBV [1], the “HBeAg absorbance level compared with Comparative Example 1 (LCA) and Comparative Example 2 (UDCA)” value is on record as “lower”; the “HBeAg absorbance level compared with the negative control group (Mock)” value was “relatively lower”. For the same compound, the “amount of HBeAg DNA detected compared to the negative control group (Mock)” value in the data set on HBV [2] (20 µM, HepG2-NTCP cell line, HBV 3000 Geq/cell) is “relatively less amount”. The activity at 20 µM in the data set with HBV [2] (Hepatitis B virus, read-out: relative replication rate of quantified HBeAg DNA to the negative control group (Mock), 20 µM, HepG2-NTCP cell line, HBV 3000 Geq/cell) is less than 80%.

(Values after patent EP4310093A1, “AMINO ACID DERIVATIVE, PREPARATION METHOD THEREFOR, AND PHARMACEUTICAL COMPOSITION FOR TREATING HEPATITIS, COMPRISING SAME” (priority 2021, dated 2022).)
